Experimental data: patent publication US9364555B2, “Pederin and psymberin agents” (priority 2011, dated 2016)
Like-named read-outs stand apart in the source and are kept apart here.

How the values were obtained:
[1] = system: HCT116 colon cancer cells; experiment: cell viability study, MTS assay with a three day incubation period; type: cell-based
Procedure: The potency of the above-described compounds was measured in cell viability studies using HCT116 colon cancer cells with an MTS assay with a three day incubation period.
The second generation analogs were evaluated for their ability to inhibit HCT116 cell growth through the same protocol that was used to evaluate the initial set of compounds.

[2] = system: p53 knockout variant of the HCT116 cell line; experiment: test against p53 knockout variant of the HCT116 cell line; type: cell-based
Description: The identity of the alkoxy group in the acyl aminal subunit appears to exert little influence over the biological activity, but the presence of the alkoxy group enhances potency by at least one order of magnitude (entries 1-4 vs. entry 5). […] This has also been observed in psymberin analogs that lack a substituent at that position (Huang et al., Org. Lett. 2009, 11, 867). […] The approximately one order of magnitude potency reduction of the des-methylene analog (entry 7), though consistent with results from the Nakata group, was somewhat surprising based on the minimal structural perturbation that this change effects on the hydrogen bond donors and acceptors in the molecule (Fukui et al., Bioorg. Med. Chem. Lett. 1997, 7, 2081).

[3] = system: HCT116 colon cancer cells; conditions: literature value, read-out: GI50 value in the literature for this cell line; cited from earlier work
[4] = HCT116 cell growth, same protocol as Table 1, Table 2, second generation analogs
[5] = HCT116 cells, MTS assay, three day incubation, Table 1, natural products and analogs
[6] = Homo sapiens, HCT-116, HCT116 cell growth, same protocol as Table 1, Table 2, second generation analogs

4-desmethylene-10-desmethoxy 13-O-methylpederin [Compound 49]
GI50 [1, 4]: 79 ± 8 nM

8-desmethoxy psymberin [Compound 47]
GI50 [1, 4]: 0.83 ± 0.1 nM

10-desmethoxy pederin [Compound 36e]
GI50 [1, 5]: 7.7 ± 0.24 nM

10-desmethoxy pedestatin [Compound 48]
GI50 [1, 4]: 0.068 ± 0.02 nM

10-dimthoxybenzyloxy pederin [Compound 36d]
GI50 [1, 5]: 0.32 ± 0.09 nM

10-trifluoroethoxy pederin [Compound 36c]
GI50 [1, 5]: 0.55 ± 0.024 nM

13-OTBS pederin
GI50 [1, 5]: 3.1 ± 0.1 nM

C=C1C[C@](OC)([C@H](O)C(=O)N[C@@H](OC)[C@@H]2C[C@@H](O)C(C)(C)[C@@H](C[C@@H](COC)OC)O2)O[C@H](C)[C@@H]1C [Compound 1, pederin]
activity against p53 knockout variant of HCT116 compared with HCT116 [2]: essentially identical activity | GI50 [1, 5]: 0.6 ± 0.1 nM

C=C(C)CC(OC)[C@H](O)C(=O)N[C@@H](OC)[C@@H]1C[C@@H](O)C(C)(C)[C@@H](C[C@H](O)[C@@H](C)[C@H]2Cc3c(C)c(O)cc(O)c3C(=O)O2)O1 (stereo partly drawn) [Compound 2, psymberin]
GI50 [3]: 0.16 nM | GI50 [1, 5]: 0.052 ± 0.02 nM

C=C1CC(OC)(C(O)C(=O)NC(OCC)C2CC(O)C(C)(C)C(CC(COC)OC)O2)OC(C)C1C (stereo not drawn) [Compound 36b, 10-ethoxy pederin]
GI50 [1, 5]: 0.34 ± 0.08 nM

C=C1C[C@](OC)([C@H](O)C(=O)N/C=C2/C[C@@H](O)C(C)(C)[C@@H](C[C@@H](COC)OC)O2)O[C@H](C)[C@@H]1C [Compound 37, pederin enamide]
activity against p53 knockout variant of HCT116 compared with HCT116 [2]: essentially identical activity | GI50 ([1]; Homo sapiens, HCT-116, 72 h, HCT116 cells, MTS assay, three day incubation, Table 1, natural products and analogs): 27 ± 0.88 nM

C=C1C[C@](OC)([C@H](O)C(=O)N[C@@H](OC)[C@@H]2C[C@@H](OC)C(C)(C)[C@@H](C[C@@H](COC)OC)O2)O[C@H](C)[C@@H]1C [Compound 41, 13-O-methyl pederin]
activity against p53 knockout variant of HCT116 compared with HCT116 [2]: essentially identical activity | GI50 [1, 5]: 0.084 ± 0.01 nM

COC[C@H](C[C@H]1O[C@H]([C@H](C)NC(=O)[C@@H](O)[C@@]2(OC)CC[C@@H](C)[C@@H](C)O2)C[C@@H](OC)C1(C)C)OC [Compound 51, 4-desmethylene-10-(S)-methyl 13-O-methylpederin]
GI50 [1, 6]: 42 ± 5 nM

COC[C@H](C[C@H]1O[C@H]([C@@H](C)NC(=O)[C@@H](O)[C@@]2(OC)CC[C@@H](C)[C@@H](C)O2)C[C@@H](OC)C1(C)C)OC [Compound 52, 4-desmethylene-10-(R)-methyl 13-O-methylpederin]
GI50 [1, 6]: > 9000 nM

C4-desmethylene pederin [Compound 40]
activity against p53 knockout variant of HCT116 compared with HCT116 [2]: essentially identical activity | GI50 [1, 5]: 6.5 ± 0.8 nM

pedestatin [Compound 46]
GI50 [1, 5]: 0.046 ± 0.03 nM
